Activity, IC50 and viability data for 1 molecule are collected here from ChEMBL document CHEMBL4411276, “Chemistry-oriented synthesis (ChOS) and target deconvolution on neuroprotective effect of a novel scaffold, oxaza spiroquinone” (Eur J Med Chem, 2019).

In data set [1] the target is Mitogen-activated protein kinase 9 (Homo sapiens) (UniProt P45984). The data set is described as follows: Inhibition of human JNK2 assessed as enzyme activity at 30 uM using ATF2 as substrate by [gamma-33P]-ATP assay relative to control. Also noted: scale not given: the % may be the effect or the level left.
The subject of data set [2] is Mus musculus. The data set is described as follows: Cognition enhancing effect in ICR mouse model of scopolamine-induced memory impairment assessed as spontaneous alteration at 10 mg/kg by Y-maze test (reference value: 45.14%). Type of data set: functional.
Data set [3] concerns the target Mitogen-activated protein kinase 8 (Homo sapiens) (UniProt P45983). The data set is described as follows: Inhibition of human JNK1 assessed as enzyme activity at 30 uM using ATF2 as substrate by [gamma-33P]-ATP assay relative to control. Set-up: scale not given: the % may be the effect or the level left.
The target of data set [4] is Mitogen-activated protein kinase 10 (Homo sapiens) (UniProt P53779). Nature of the data set: Inhibition of human JNK3 assessed as enzyme activity at 30 uM using ATF2 as substrate by [gamma-33P]-ATP assay relative to control. Set-up: scale not given: the % may be the effect or the level left.
Data set [5] deals with Death-associated protein kinase 1 (Homo sapiens) (UniProt P53355). Nature of the data set: Inhibition of human DAPK1 assessed as enzyme activity at 30 uM using KKLNRTLSFAEPG as substrate by [gamma-33P]-ATP assay relative to control. Set-up: scale not given: the % may be the effect or the level left.
For data set [6], the target named is Serine/threonine-protein kinase N2 (Homo sapiens) (UniProt Q16513). The data set is described as follows: Inhibition of human PKN2 assessed as enzyme activity at 30 uM using KKLNRTLSVA as substrate by [gamma-33P]-ATP assay relative to control. Also noted: scale not given: the % may be the effect or the level left.
In data set [7] the target is CDK3/Cyclin E (Homo sapiens) (UniProt P24864+Q00526). The data set is described as follows: Inhibition of human CDK3/cyclin-E assessed as enzyme activity at 30 uM using histone H1 as substrate by [gamma-33P]-ATP assay relative to control. Type of data set: protein-complex assay. Also noted: scale not given: the % may be the effect or the level left.
The target of data set [8] is Serine/threonine-protein kinase 25 (Homo sapiens) (UniProt O00506). The data set is described as follows: Inhibition of human STK25 assessed as enzyme activity at 30 uM using MBP as substrate by [gamma-33P]-ATP assay relative to control. Also noted: scale not given: the % may be the effect or the level left.
Data set [9] addresses Serine/threonine-protein kinase 24 (Homo sapiens) (UniProt Q9Y6E0). Nature of the data set: Inhibition of human MST3 assessed as enzyme activity at 30 uM using MBP as substrate by [gamma-33P]-ATP assay relative to control. Also noted: scale not given: the % may be the effect or the level left.
The test system of another data set is BV-2. Nature of the data set: Anti-inflammatory activity in mouse BV2 cells assessed as reduction in LPS-induced NO production pre-treated before LPS stimulation for 24 hrs by Griess reagent-based assay. The format is functional, cell-based. (Griess reagent forms a coloured azo dye with nitrite.)
Data set [10] concerns the target T1, Dual serine/threonine and tyrosine protein kinase (Homo sapiens) (UniProt Q6XUX3).
T1 sequence (whole entry): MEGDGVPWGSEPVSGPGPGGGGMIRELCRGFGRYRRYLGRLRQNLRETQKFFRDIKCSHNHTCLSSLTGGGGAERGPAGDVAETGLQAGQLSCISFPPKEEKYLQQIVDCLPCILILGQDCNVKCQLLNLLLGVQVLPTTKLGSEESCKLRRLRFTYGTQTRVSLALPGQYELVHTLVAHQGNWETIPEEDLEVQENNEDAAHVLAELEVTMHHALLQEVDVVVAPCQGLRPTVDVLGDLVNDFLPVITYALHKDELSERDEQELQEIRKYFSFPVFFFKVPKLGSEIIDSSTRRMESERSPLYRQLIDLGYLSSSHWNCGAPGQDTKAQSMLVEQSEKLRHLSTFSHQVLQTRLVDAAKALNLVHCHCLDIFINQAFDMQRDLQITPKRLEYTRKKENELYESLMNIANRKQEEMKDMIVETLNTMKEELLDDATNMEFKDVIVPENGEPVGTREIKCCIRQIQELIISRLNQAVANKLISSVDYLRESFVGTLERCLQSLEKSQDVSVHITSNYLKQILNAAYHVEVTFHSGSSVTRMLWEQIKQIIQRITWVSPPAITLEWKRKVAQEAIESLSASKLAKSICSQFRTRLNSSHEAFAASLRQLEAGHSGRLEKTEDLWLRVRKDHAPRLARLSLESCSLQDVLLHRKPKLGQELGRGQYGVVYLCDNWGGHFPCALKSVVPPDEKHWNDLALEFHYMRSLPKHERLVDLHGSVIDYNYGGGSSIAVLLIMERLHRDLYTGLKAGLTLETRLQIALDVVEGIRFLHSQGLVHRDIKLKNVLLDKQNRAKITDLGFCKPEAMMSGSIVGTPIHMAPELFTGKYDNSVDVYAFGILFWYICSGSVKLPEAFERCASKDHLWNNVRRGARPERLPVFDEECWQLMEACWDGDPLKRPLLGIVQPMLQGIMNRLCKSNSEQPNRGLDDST
Nature of the data set: Inhibition of human RIPK5 assessed as enzyme activity at 30 uM using MBP as substrate by [gamma-33P]-ATP assay relative to control. Set-up: scale not given: the % may be the effect or the level left.

In data set [11] the target is Protein kinase C beta type (Homo sapiens) (UniProt P05771). The data set is described as follows: Inhibition of human PKCb2 assessed as enzyme activity at 30 uM using Histone H1 as substrate by [gamma-33P]-ATP assay relative to control. Set-up: scale not given: the % may be the effect or the level left.
A short description of data set [12]: Cytotoxicity against LPS-stimulated mouse BV2 cells assessed as cell survival after 24 hrs by MTT assay relative to control. The note with it: read-out: Survival. Also noted: concentration or dose not given beside the values. The format is cell-based, BV-2.
The target in data set [13] is Protein kinase C alpha type (Homo sapiens) (UniProt P17252). The data set is described as follows: Inhibition of human PKCalpha assessed as enzyme activity at 30 uM using ERMRPRKRQGSVRRRV as substrate by [gamma-33P]-ATP assay relative to control. Also noted: scale not given: the % may be the effect or the level left.
The target of data set [14] is CDK2/Cyclin O (Homo sapiens) (UniProt P24941+P22674). The data set is described as follows: Inhibition of human CDK2/cyclin-O assessed as enzyme activity at 30 uM using histone H1 as substrate by [gamma-33P]-ATP assay relative to control. The format is protein-complex assay. Set-up: scale not given: the % may be the effect or the level left.
Data set [15] can be described thus: Cytotoxicity against mouse BV2 cells assessed as cell survival after 24 hrs by MTT assay relative to control. Conditions: read-out: Survival. The format is cell-based, BV-2. Set-up: concentration or dose not given beside the values. On the technique in general: Tetrazolium dyes change colour on reduction, which living cells bring about.
In data set [16] the test system is Mus musculus. The data set is described as follows: Effect on total entries in ICR mouse model of scopolamine-induced memory impairment at 5 mg/kg by Y-maze test. Type of data set: ADME, organism-based. Conditions: in vivo.

In the case of `O=C1C=CC2(C=C1)OCC(Cc1cc(C(F)(F)F)cc(C(F)(F)F)c1)C(=O)N2c1ccccc1` (configuration not stated), the Activity in data set [1] is 57.8 to 58.8%; with Mus musculus [2], 59.62%; in [3], 35.6 to 36%; in data set [4] it was 70.6 to 73.4%; in data set [5], 45.3 to 45.4%; in data set [6] it was 62.2 to 64.8%. Also, the Activity was 58.5 to 60.2% in data set [7]; 66.9 to 67% in data set [8]; 57.6 to 58.2% in data set [9]; 58.6 to 59.9% in [10]; 67.7 to 71.2% in data set [11]; 44.8 to 46.5% in [13]. Besides, the Activity in data set [14] is 42.3 to 43.8%; with Mus musculus [16], “Non-Toxic”. Besides, the IC50 in the data set with BV-2 was determined as 70 nM. Moreover, the results for the viability at 24 h in data set [12] and in [15] were 92.1% and 85.4%, respectively.

Usually IC50 stands for the concentration that gives 50% inhibition.
